# Read-outs that look alike come from different tables or passages of the source. Square brackets hold non-standard residues; d marks the D form. Ends that are not written are not given here. Peptide text beside a SMILES is read from it. pY = N[C@@H](Cc1ccc(OP(=O)(O)O)cc1)C(=O)O
# Key:
# [1] = target: T1, Shc PTB domain (GST-ShcB) binding to activated EGF-R (Homo sapiens, UniProt P29353); test: In vitro binding assay: competitive inhibition of EGF receptor binding to GST-ShcB in HER14 lysates; details: FIG. 10 Panel A; for inhibition of association of Shc and EGF-R: dose response, cyclic peptides, 5 μM
# T1 construct: made in house
# T1 sequence (P29353 156-339 limits assumed): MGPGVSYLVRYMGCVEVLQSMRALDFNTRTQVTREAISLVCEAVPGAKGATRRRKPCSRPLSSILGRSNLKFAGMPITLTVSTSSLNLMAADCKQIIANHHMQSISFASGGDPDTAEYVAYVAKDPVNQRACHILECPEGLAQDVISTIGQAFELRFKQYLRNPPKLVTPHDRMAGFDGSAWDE
# Protocol: HER14 cells (3T3 cells expressing EGF-R) were starved in 0.5% CS media for 24 hours and stimulated with 100 ng/ml EGF for 5 min. Cells were lysed and mixed with GST, GST-ShcB or GST-R175M beads. Proteins which bound to beads were resolved on SDS-PAGE and detected by anti-phospho-Tyr antibody (4G10) or by anti-EGF-R.
# The peptides listed in Table 2 were added to cell lysates at 5 μM, incubated for 30 min., and treated with GST-ShcB beads. Proteins bound to GST-ShcB were detected by anti-phospho-Tyr antibody. […] The experiment was repeated with the peptides dissolved in DMSO (FIG. 9).
# Shc PTB domain = target: T2, Shc PTB domain (Homo sapiens, UniProt P29353); test: Surface plasmon resonance competition of GST-Shc PTB domain binding to immobilized polyoma middle T antigen phosphopeptide
# T2 construct: containing 1 μM GST-Shc PTB domain fusion protein; made in house
# T2 sequence (P29353 156-339 limits assumed): T1 sequence (P29353 156-339 limits assumed)
# Protocol: Surface plasmon resonance analysis was carried out using a Biacore apparatus (Pharmacia Biosensor) as described previously (Puil et al., 1994). The peptide L-S-L-L-S-N-P-T-p.Y-S-V-M-R-S-K (SEQ ID NO:23) was immobilized to a biosensor chip through injection of a 0.5 mM solution of the phosphopeptide, in 50 mM HEPES, pH 7.5 and 2 M NaCl, across the chip surface previously activated following procedures outlined by the manufacturer. Injection of anti-phosphotyrosine antibody was used to confirm that successful immobilization of the peptide was achieved. Solutions (100 μl) containing 1 μM GST-Shc PTB domain fusion protein and the indicated concentrations of soluble phosphopeptide in 50 mM Na phosphate, pH 7.5, 150 mM NaCl, 0.1 mM EDTA, and 2 mM DTT, were injected across the surface. The amount of bound GST-Shc PTB domain was estimated from the surface plasmon resonance signal at a fixed time following the end of the injection and the percentage bound, relative to injection of GST-Shc PTB domain alone, calculated. The surface was regenerated using 2 M Guanidinium-HCl.
# cells = test: Peptide localization in cells (anti-phospho-Tyr immunofluorescence); format: cell-based
# Protocol: To examine peptide localization, cells were treated with P-1 or P-2 peptide for 4 hours, stained with anti-phospho-Tyr and rhodamine-conjugated antibody, and observed with a confocal microscope. A Z-scan was carried out to make images in each 0.15 μm section from the top of the cells to the bottom. […] Cells treated with P-1 peptide were not stained by anti-phospho-Tyr antibody, confirming the specifity of the immunofluoroscence staining. In a time course analysis, cells were serum-starved for 24 hours, and incubated with peptide (5 μM) for various time periods. Cells were stained by anti-phosphoro-Tyr antibody and analyzed under an immunofluoroscence microscope. Cells treated with P-2 peptide retained phospho-peptide for up to 24 hrs. In a dose response experiment, cells were starved in serum-free medium for 24 hours, cultured with peptide at various concentrations, and stained with anti-phospho-tyrosine antibody (4G10) to detect the peptide containing phospho-tyrosine residue (red) and by Hoechst 33258 for nuclei (blue). P-2 peptide was detected at 0.5 μM and 1 μM in cells .
# [2] = peptide concentration inhibiting by 50% binding of 1 μM GST-Shc PTB domain to immobilized polyoma middle T antigen phosphopeptide, read-out: IC 50
molecule,measurement,setting,value
"CC[C@H](C)[C@@H]1NC(=O)CNC(=O)[C@@H]2CCCN2C(=O)[C@H](CO)NC(=O)[C@H](Cc2ccccc2)NC(=O)[C@H](Cc2ccc(OP(=O)(O)O)cc2)NC(=O)[C@H](CCC(N)=O)NC(=O)[C@@H]2CCCN2C(=O)[C@H](CC(N)=O)NC(=O)[C@H](CCC(=O)O)NC1=O [C-1, Cyclo-(IENPQpYFSPG)] (cyclo(ENPQ[pY]FSPGI))",inhibition at 100 µM,"[1]; 100 μM, read-out: inhibition of association of Shc and EGF-R",~50%
"NC(=O)CC[C@@H]1NC(=O)[C@@H]2CCCN2C(=O)[C@H](CC(N)=O)NC(=O)[C@H](Cc2ccc(OP(=O)(O)O)cc2)NC1=O [C-3, Cyclo-(NPQpY)] (cyclo(NPQ[pY]))",inhibition of association of Shc and EGF-R,[1],did not inhibit
"NC(=O)CC[C@@H]1NC(=O)[C@@H]2CCCN2C(=O)[C@H](CC(N)=O)NC(=O)CNC(=O)[C@H](Cc2ccc(OP(=O)(O)O)cc2)NC1=O [C-4, Cyclo-(NPQpYG)] (cyclo(GNPQ[pY]))",inhibition of association of Shc and EGF-R,[1],did not inhibit
"NC(=O)CC[C@@H]1NC(=O)[C@@H]2CCCN2C(=O)[C@H](CC(N)=O)NC(=O)CNC(=O)CNC(=O)[C@H](Cc2ccc(OP(=O)(O)O)cc2)NC1=O [C-5, Cyclo-(NPQpYGG)] (cyclo(GGNPQ[pY]))",inhibition of association of Shc and EGF-R,[1],did not inhibit
"C[C@H](NC(=O)[C@H](C)NC(=O)[C@@H](N)Cc1c[nH]cn1)C(=O)N[C@@H](CCC(=O)O)C(=O)N[C@@H](CC(N)=O)C(=O)N1CCC[C@H]1C(=O)N[C@@H](CCC(N)=O)C(=O)N[C@@H](Cc1ccc(OP(=O)(O)O)cc1)C(=O)N[C@@H](Cc1ccccc1)C(=O)N[C@@H](CO)C(=O)N[C@@H](CC(=O)O)C(=O)O [H-A-A-E-N-P-Q-P.Y-F-S-D, H-A-A-E-N-P-Q-p.Y-F-S-D] (H-HAAENPQ[pY]FSD-OH)",IC50,Shc PTB domain,475 nM
"CC[C@H](C)[C@H](NC(=O)[C@H](C)NC(=O)[C@@H](N)Cc1c[nH]cn1)C(=O)N[C@@H](CCC(=O)O)C(=O)N[C@@H](CC(N)=O)C(=O)N1CCC[C@H]1C(=O)N[C@@H](CCC(N)=O)C(=O)N[C@@H](Cc1ccc(OP(=O)(O)O)cc1)C(=O)N[C@@H](Cc1ccccc1)C(=O)N[C@@H](CO)C(=O)N[C@@H](CC(=O)O)C(=O)O [H-A-I-E-N-P-Q-P.Y-F-S-D, His-Ala-Ile-Glu-Asn-Pro-Gln-P.Tyr-Phe-Ser-Asp] (H-HAIENPQ[pY]FSD-OH)",IC50,Shc PTB domain,20 nM
"C[C@H](NC(=O)[C@@H](N)Cc1c[nH]cn1)C(=O)N[C@@H](CO)C(=O)N[C@@H](CCC(=O)O)C(=O)N[C@@H](CC(N)=O)C(=O)N1CCC[C@H]1C(=O)N[C@@H](CCC(N)=O)C(=O)N[C@@H](Cc1ccc(OP(=O)(O)O)cc1)C(=O)N[C@@H](Cc1ccccc1)C(=O)N[C@@H](CO)C(=O)N[C@@H](CC(=O)O)C(=O)O [H-A-S-E-N-P-Q-P.Y-F-S-D, H-A-S-E-N-P-Q-p.Y-F-S-D] (H-HASENPQ[pY]FSD-OH)",IC50,Shc PTB domain; [2],15000 nM
"CC[C@H](C)[C@H](NC(=O)[C@@H](N)Cc1c[nH]cn1)C(=O)N[C@@H](C)C(=O)N[C@@H](CCC(=O)O)C(=O)N[C@@H](CC(N)=O)C(=O)N1CCC[C@H]1C(=O)N[C@@H](CCC(N)=O)C(=O)N[C@@H](Cc1ccc(OP(=O)(O)O)cc1)C(=O)N[C@@H](Cc1ccccc1)C(=O)N[C@@H](CO)C(=O)N[C@@H](CC(=O)O)C(=O)O [H-I-A-E-N-P-Q-P.Y-F-S-D, His-Ile-Ala-Glu-Asn-Pro-Gln-P.Tyr-Phe-Ser-Asp] (H-HIAENPQ[pY]FSD-OH)",IC50,Shc PTB domain,250 nM
"CC[C@H](C)[C@H](NC(=O)[C@@H](NC(=O)[C@@H](N)Cc1c[nH]cn1)[C@@H](C)CC)C(=O)N[C@@H](CCC(=O)O)C(=O)N[C@@H](C)C(=O)N1CCC[C@H]1C(=O)N[C@@H](CCC(N)=O)C(=O)N[C@@H](Cc1ccc(OP(=O)(O)O)cc1)C(=O)N[C@@H](Cc1ccccc1)C(=O)N[C@@H](CO)C(=O)N[C@@H](CC(=O)O)C(=O)O [H-I-I-E-A-P-Q-P.Y-F-S-D, His-Ile-Ile-Glu-Ala-Pro-Gln-P.Tyr-Phe-Ser-Asp] (H-HIIEAPQ[pY]FSD-OH)",IC50,Shc PTB domain; [2],80000 nM
"CC[C@H](C)[C@H](NC(=O)[C@@H](NC(=O)[C@@H](N)Cc1c[nH]cn1)[C@@H](C)CC)C(=O)N[C@@H](CCC(=O)O)C(=O)N[C@@H](CC(N)=O)C(=O)N[C@@H](C)C(=O)N[C@@H](CCC(N)=O)C(=O)N[C@@H](Cc1ccc(OP(=O)(O)O)cc1)C(=O)N[C@@H](Cc1ccccc1)C(=O)N[C@@H](CO)C(=O)N[C@@H](CC(=O)O)C(=O)O [H-I-I-E-N-A-Q-P.Y-F-S-D, His-Ile-Ile-Glu-Asn-Ala-Gln-P.Tyr-Phe-Ser-Asp] (H-HIIENAQ[pY]FSD-OH)",IC50,Shc PTB domain; [2],2500 nM
"CC[C@H](C)[C@H](NC(=O)[C@@H](NC(=O)[C@@H](N)Cc1c[nH]cn1)[C@@H](C)CC)C(=O)N[C@@H](CCC(=O)O)C(=O)N[C@@H](CC(N)=O)C(=O)N1CCC[C@H]1C(=O)N[C@@H](CCC(N)=O)C(=O)N[C@@H](Cc1ccc(OP(=O)(O)O)cc1)C(=O)N[C@@H](Cc1ccccc1)C(=O)N[C@@H](CO)C(=O)N[C@@H](CC(=O)O)C(=O)O [H-I-I-E-N-P-Q-P.Y-F-S-D, His-Ile-Ile-Glu-Asn-Pro-Gln-P.Tyr-Phe-Ser-Asp] (H-HIIENPQ[pY]FSD-OH)",IC50,Shc PTB domain,175 nM
CC[C@H](C)[C@H](N)C(=O)N[C@@H](CCC(=O)O)C(=O)N[C@@H](CC(N)=O)C(=O)N1CCC[C@H]1C(=O)N[C@@H](CCC(N)=O)C(=O)N[C@@H](Cc1ccc(OP(=O)(O)O)cc1)C(=O)N[C@@H](Cc1ccccc1)C(=O)N[C@@H](CO)C(=O)N[C@@H](CC(=O)O)C(=O)O [IENPQpYFSD] (H-IENPQ[pY]FSD-OH),IC50,Shc PTB domain,4000 nM
"CC[C@H](C)[C@H](NC(=O)[C@H](CCCCN)NC(=O)[C@@H](NC(=O)[C@H](CCC(N)=O)NC(=O)[C@@H](N)CCCNC(=N)N)[C@@H](C)CC)C(=O)N[C@@H](Cc1c[nH]c2ccccc12)C(=O)N[C@@H](Cc1ccccc1)C(=O)N[C@@H](CCC(N)=O)C(=O)N[C@@H](CC(N)=O)C(=O)N[C@@H](CCCNC(=N)N)C(=O)N[C@@H](CCCNC(=N)N)C(=O)N[C@@H](CCSC)C(=O)N[C@@H](CCCCN)C(=O)N[C@@H](Cc1c[nH]c2ccccc12)C(=O)N[C@@H](CCCCN)C(=O)N[C@@H](CCCCN)C(=O)N[C@@H](Cc1c[nH]cn1)C(=O)N[C@H](C(=O)N[C@H](C(=O)N[C@@H](CCC(=O)O)C(=O)N[C@@H](CC(N)=O)C(=O)N1CCC[C@H]1C(=O)N[C@@H](CCC(N)=O)C(=O)N[C@@H](Cc1ccc(OP(=O)(O)O)cc1)C(=O)N[C@@H](Cc1ccccc1)C(=O)N[C@@H](CO)C(=O)N[C@@H](CC(=O)O)C(=O)O)[C@@H](C)CC)[C@@H](C)CC [P-2, RQIKIWFQNRRMKWKK-HIIENPQpYFSD] (H-RQIKIWFQNRRMKWKKHIIENPQ[pY]FSD-OH)",peptide localization in cells,"cells; cells treated 4 hours, anti-phospho-Tyr staining, confocal microscope","localized in the cytoplasm of cells, and not in the nucleus"
same,detection of peptide in cells by anti-phospho-tyrosine staining,"cells; dose response, 0.5 μM and 1 μM (concentrations up to 1 μM)",detected
same,retention of phospho-peptide in cells,"cells; time course, peptide 5 μM, serum-starved cells",up to 24 hrs
"CC[C@H](C)[C@H](NC(=O)[C@H](C)NC(=O)[C@@H](N)Cc1ccc(O)cc1)C(=O)N[C@@H](CO)C(=O)N[C@@H](CC(N)=O)C(=O)N1CCC[C@H]1C(=O)N[C@@H](CCC(=O)O)C(=O)N[C@@H](Cc1ccc(OP(=O)(O)O)cc1)C(=O)N[C@@H](CC(C)C)C(=O)N[C@@H](CO)C(=O)N[C@@H](C)C(=O)O [Y-A-I-S-N-P-E-P.Y-L-S-A, Tyr-Ala-Ile-Ser-Asn-Pro-Glu-P.Tyr-Leu-Ser-Ala] (H-YAISNPE[pY]LSA-OH)",IC50,Shc PTB domain; [2],90 nM
"CC(C)C[C@H](NC(=O)[C@H](Cc1ccc(OP(=O)(O)O)cc1)NC(=O)[C@H](CCC(=O)O)NC(=O)[C@@H]1CCCN1C(=O)[C@H](CC(N)=O)NC(=O)[C@H](CO)NC(=O)[C@H](CO)NC(=O)[C@H](C)NC(=O)[C@@H](N)Cc1ccc(O)cc1)C(=O)N[C@@H](CO)C(=O)N[C@@H](C)C(=O)O [Y-A-S-S-N-P-E-P.Y-L-S-A, Y-A-S-S-N-P-E-p.Y-L-S-A] (H-YASSNPE[pY]LSA-OH)",IC50,Shc PTB domain; [2],7000 nM
"RQIKIWFQNRRMKWKKHIIENPQYFSD [P-1, RQIKIWFQNRRMKWKK-HIIENPQYFSD]",peptide localization in cells,cells,not stained
